{"source": "patent US6821980B1", "about": "“Substituted 5-benzyl-2,4-diaminopyrimidines” (Basilea Pharmaceutica AG, priority 1999, dated 2004)", "key": {"[1]": {"test_system": "Streptococcus pneumoniae 1/1", "test": "MIC against Streptococcus pneumoniae 1/1", "type": "cell-based"}, "[2]": {"test_system": "Staphylococcus aureus 101", "test": "MIC against Staphylococcus aureus 101", "type": "cell-based", "details": "read-out: MIC Sa101"}, "[3]": {"molecular_target": "T1, purified DHFR of strain Sp1/1 of Streptococcus pneumoniae (Streptococcus pneumoniae serotype 4, UniProt Q54801)", "T1 sequence (Q54801 1-168 I100L)": "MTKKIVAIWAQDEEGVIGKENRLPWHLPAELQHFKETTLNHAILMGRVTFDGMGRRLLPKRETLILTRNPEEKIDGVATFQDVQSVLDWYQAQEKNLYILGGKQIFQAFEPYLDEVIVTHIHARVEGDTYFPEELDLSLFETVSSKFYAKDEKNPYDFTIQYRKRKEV", "type": "biochemical", "details": "IC50 against purified DHFR of strain Sp1/1"}, "[4]": {"molecular_target": "purified DHFR of strain 157/4696 of Staphylococcus aureus (Staphylococcus aureus, UniProt P13955)", "sequence (P13955 whole entry)": "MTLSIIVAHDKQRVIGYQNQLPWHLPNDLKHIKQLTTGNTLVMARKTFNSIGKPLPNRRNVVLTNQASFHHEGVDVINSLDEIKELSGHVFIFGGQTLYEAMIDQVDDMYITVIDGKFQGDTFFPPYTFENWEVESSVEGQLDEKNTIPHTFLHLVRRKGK", "test": "biochemical"}, "[5]": {"details": "Table 2, Streptococcus pneumoniae 1/1, trimethoprim- and penicillin-resistant, serotype 6, clinical isolate, read-out: MIC Sp1/1"}, "[6]": {"details": "Table 2, Staphylococcus aureus 101, MRSA- and trimethoprim-resistant, clinical isolate"}}, "note": "Where two headings read alike, the source gives them in different places."}
{"compound": "CCOc1cc(Cc2cnc(N)nc2N)cc(OCC)c1-c1ccco1", "note": "[Example 02-o, 5-(3,5-Diethoxy-4-furan-2-yl-benzyl)-pyrimidine-2,4-diamine]", "values": [{"measurement": "MIC", "setting": "[1]; [5]", "result": 4, "unit": "µg/mL"}, {"measurement": "MIC", "setting": "[2]; [6]", "result": 4, "unit": "µg/mL"}, {"measurement": "IC50", "setting": "[3]; Table 2", "result": 100, "unit": "nM"}, {"measurement": "IC50", "setting": "[4]", "result": 2200, "unit": "nM"}]}
{"compound": "CCOc1cc(Cc2cnc(N)nc2N)cc(OCC)c1-c1cccnc1", "note": "[Example 02-p, 5-(3,5-Diethoxy-4-pyridin-3-yl-benzyl)-pyrimidine-2,4-diamine]", "values": [{"measurement": "MIC", "setting": "[1]; [5]", "result": 4, "unit": "µg/mL"}, {"measurement": "MIC", "setting": "[2]; [6]", "result": 8, "unit": "µg/mL"}, {"measurement": "IC50", "setting": "[3]; Table 2", "result": 100, "unit": "nM"}, {"measurement": "IC50", "setting": "[4]", "result": 2200, "unit": "nM"}]}
{"compound": "CCOc1cc(Cc2cnc(N)nc2N)cc(OCC)c1-c1ccc(C)cc1", "note": "[Example 02-q, 5-(2,6-Diethoxy-4′-methyl-biphenyl-4-ylmethyl)-pyrimidine-2,4-diamine]", "values": [{"measurement": "MIC", "setting": "[1]; [5]", "result": 8, "unit": "µg/mL"}, {"measurement": "MIC", "setting": "[2]; [6]", "result": 4, "unit": "µg/mL"}, {"measurement": "IC50", "setting": "[3]; Table 2", "result": 79, "unit": "nM"}, {"measurement": "IC50", "setting": "[4]", "result": 1100, "unit": "nM"}]}
{"compound": "CCOc1cc(Cc2cnc(N)nc2N)cc(OCC)c1-c1ccc2c(c1)OCO2", "note": "[Example 02-r, 5-(4-Benzo[1,3]dioxol-5-yl-3,5-diethoxy-benzyl)-pyrimidine-2,4-diamine]", "values": [{"measurement": "MIC", "setting": "[1]; [5]", "result": 4, "unit": "µg/mL"}, {"measurement": "MIC", "setting": "[2]; [6]", "result": 4, "unit": "µg/mL"}, {"measurement": "IC50", "setting": "[3]; Table 2", "result": 70, "unit": "nM"}, {"measurement": "IC50", "setting": "[4]", "result": 2500, "unit": "nM"}]}
{"compound": "CCOc1cc(Cc2cnc(N)nc2N)cc(OCC)c1-c1ccc(O)c(C)c1", "note": "[Example 02-s, 4′-(2,4-Diamino-pyrimidin-5-ylmethyl)-2′,6′-diethoxy-3-methyl-biphenyl-4-ol]", "values": [{"measurement": "MIC", "setting": "[1]; [5]", "result": 8, "unit": "µg/mL"}, {"measurement": "MIC", "setting": "[2]; [6]", "result": 4, "unit": "µg/mL"}, {"measurement": "IC50", "setting": "[3]; Table 2", "result": 83, "unit": "nM"}, {"measurement": "IC50", "setting": "[4]", "result": 2200, "unit": "nM"}]}
{"compound": "CCOc1cc(Cc2cnc(N)nc2N)cc(OCC)c1-c1ccc(O)cc1", "note": "[Example 02-t, 4′-(2,4-Diamino-pyrimidin-5-ylmethyl)-2′,6′-diethoxy-biphenyl-4-ol]", "values": [{"measurement": "MIC", "setting": "[1]; Streptococcus pneumoniae, 1/1, read-out: MIC Sp1/1", "result": 4, "unit": "µg/mL"}, {"measurement": "MIC", "setting": "[2]; Staphylococcus aureus, MRSA", "result": 8, "unit": "µg/mL"}, {"measurement": "IC50", "setting": "[3]; Table 2", "result": 81, "unit": "nM"}, {"measurement": "IC50", "setting": "[4]", "result": 1100, "unit": "nM"}]}
{"compound": "CCOc1cc(Cc2cnc(N)nc2N)cc(OCC)c1-c1cccc(C#N)c1", "note": "[Example 02-u, 4′-(2,4-Diamino-pyrimidin-5-ylmethyl)-2′,6′-diethoxy-biphenyl-3-carbonitrile]", "values": [{"measurement": "MIC", "setting": "[1]; [5]", "result": 4, "unit": "µg/mL"}, {"measurement": "MIC", "setting": "[2]; [6]", "result": 8, "unit": "µg/mL"}, {"measurement": "IC50", "setting": "[3]; Table 2", "result": 180, "unit": "nM"}, {"measurement": "IC50", "setting": "[4]", "result": 4000, "unit": "nM"}]}
{"compound": "CCOc1cc(Cc2cnc(N)nc2N)cc(OCC)c1-c1ccc(N(C)C)cc1", "note": "[Example 02-v, 5-(4′-Dimethylamino-2,6-diethoxy-biphenyl-4-ylmethyl)-pyrimidine-2,4-diamine]", "values": [{"measurement": "MIC", "setting": "[1]; [5]", "result": 4, "unit": "µg/mL"}, {"measurement": "MIC", "setting": "[2]; [6]", "result": 8, "unit": "µg/mL"}, {"measurement": "IC50", "setting": "[3]; Table 2", "result": 110, "unit": "nM"}, {"measurement": "IC50", "setting": "[4]", "result": 10000, "unit": "nM"}]}
{"compound": "CCOc1cc(Cc2cnc(N)nc2N)cc(OCC)c1-c1ccc(CN2CCOCC2)cc1", "note": "[Example 02-w, 5-(2,6-Diethoxy-4′-morpholine-4-ylmethyl-biphenyl-4-ylmethyl)-pyrimidine-2,4-diamine]", "values": [{"measurement": "MIC", "setting": "[1]; [5]", "result": 4, "unit": "µg/mL"}, {"measurement": "MIC", "setting": "[2]; [6]", "result": 8, "unit": "µg/mL"}, {"measurement": "IC50", "setting": "[3]; Table 2", "result": 280, "unit": "nM"}, {"measurement": "IC50", "setting": "[4]", "result": 2200, "unit": "nM"}]}
{"compound": "CCOc1cc(Cc2cnc(N)nc2N)cc(OCC)c1-c1ccc2c(c1)OCCO2", "note": "[Example 02-x, 5-[4-(2,3-Dihydro-benzo[1,4]dioxin-6-yl)-3,5-diethoxy-benzyl]-pyrimidine-2,4-diamine]", "values": [{"measurement": "MIC", "setting": "[1]; [5]", "result": 2, "unit": "µg/mL"}, {"measurement": "MIC", "setting": "[2]; [6]", "result": 8, "unit": "µg/mL"}, {"measurement": "IC50", "setting": "[3]; Table 2", "result": 75, "unit": "nM"}, {"measurement": "IC50", "setting": "[4]", "result": 2330, "unit": "nM"}]}
{"compound": "CCOc1cc(Cc2cnc(N)nc2N)cc(OCC)c1-c1cccc(N(C)C)c1", "note": "[Example 02-y, 5-(3′-Dimethylamino-2,6-diethoxy-biphenyl-4-ylmethyl)-pyrimidine-2,4-diamine]", "values": [{"measurement": "MIC", "setting": "[1]; [5]", "result": 4, "unit": "µg/mL"}, {"measurement": "MIC", "setting": "[2]; [6]", "result": 8, "unit": "µg/mL"}, {"measurement": "IC50", "setting": "[3]; Table 2", "result": 150, "unit": "nM"}, {"measurement": "IC50", "setting": "[4]", "result": 800, "unit": "nM"}]}
{"compound": "CCOc1cc(Cc2cnc(N)nc2N)cc(OCC)c1-c1cccc([N+](=O)[O-])c1", "note": "[Example 02-z, 5-(2,6-Diethoxy-3′-nitro-biphenyl-4-ylmethyl)-pyrimidine-2,4-diamine]", "values": [{"measurement": "MIC", "setting": "[1]; [5]", "result": 8, "unit": "µg/mL"}, {"measurement": "MIC", "setting": "[2]; [6]", "result": 8, "unit": "µg/mL"}, {"measurement": "IC50", "setting": "[3]; Table 2", "result": 60, "unit": "nM"}, {"measurement": "IC50", "setting": "[4]", "result": 1600, "unit": "nM"}]}
{"compound": "CCOc1cc(Cc2cnc(N)nc2N)cc(OCC)c1-c1cccc(N)c1", "note": "[Example 2a, 5-(3′-Amino-2,6-diethoxy-biphenyl-4-ylmethyl)-pyrimidine-2,4-diamine]", "values": [{"measurement": "MIC", "setting": "[1]; Table 1, Streptococcus pneumoniae 1/1, trimethoprim- and penicillin-resistant, serotype 6, clinical isolate, read-out: MIC Sp1/1", "result": 4, "unit": "µg/mL"}, {"measurement": "MIC", "setting": "[2]; Table 1, Staphylococcus aureus 101, MRSA- and trimethoprim-resistant, clinical isolate", "result": 8, "unit": "µg/mL"}, {"measurement": "IC50", "setting": "[3]; Table 1", "result": 30, "unit": "nM"}, {"measurement": "IC50", "setting": "[4]", "result": 750, "unit": "nM"}]}
